Legend:
EMT6 cells = test: CD73hi EMT6 syngeneic tumor model, tumor growth; assay type: in vivo, mice; details: Day 10 post treatment initiation, Compound A 300 mg/kg po BID alone
Method: (§1) Female BALB/c mice were inoculated with 2.5×10^5 EMT6 cells into the right mammary fat pad and were treated with Compound A (300 mg/kg po, BID), bintrafusp alfa (24.6 mg/kg iv, days 0, 3, 6), Compound A+bintrafusp alfa, when average tumor volume reached approximately 60 mm^3. Vehicle (po, BID) and isotype control antibody injections (20 mg/kg iv, days 0, 3, 6) were used as controls. (A) Average tumor volumes with SEM, and (B) individual tumor volumes are presented. Tumor volume data were analyzed using two-way ANOVA followed by Tukey's multiple comparison test.
(§2) To determine whether combined treatment with the dual A2A/A2B receptor inhibitor “Compound A” ((S)-7-Oxa-2-aza-spiro[4.5]decane-2-carboxylic acid [7-(3,6-dihydro-2H-pyran-4-yl)-4-methoxy-thiazolo[4,5-c]pyridin-2-yl]-amide) and bintrafusp alfa can inhibit tumor growth in either CD73^hi or CD73^low models, tumor growth was monitored in […] syngeneic tumor models. Animals were inoculated with either CD73^hi tumor cells (4T1, E0771, or EMT6) or with CD73^low MC38, H22 or MBT2 tumor cells. For all tumor models, animals were treated with either 1) vehicle and isotype, 2) Compound A and isotype, 3) vehicle and bintrafusp alfa, or 4) Compound A and bintrafusp alfa. […]

H22 cells = test: CD73low H22 syngeneic tumor model, tumor growth; assay type: in vivo; details: H22, female BALB/c mice; Day 16 post treatment initiation; Compound A 300 mg/kg po BID; bintrafusp alfa 24.6 mg/kg iv days 0, 3, 6
Method: as §1, with “1×10^6 H22” for “2.5×10^5 EMT6”, “in” for “into”, “upper flank” for “mammary fat pad”, “55 mm3.” for “60 mm^3.”
as §2

Molecule	tumor growth inhibition (EMT6 cells)	tumor growth inhibition, T/C (H22 cells) [%]
COc1ncc(C2=CCOCC2)c2sc(NC(=O)N3CC[C@@]4(CCCOC4)C3)nc12 [Compound A, (S)-7-Oxa-2-aza-spiro[4.5]decane-2-carboxylic acid [7-(3,6-dihydro-2H-pyran-4-yl)-4-methoxy-thiazolo[4,5-c]pyridin-2-yl]-amide]	did not show tumor growth inhibition	
bintrafusp alfa: anti-PD-L1:TGFβRII fusion protein, CAS 1918149-01-5; human IgG1 antibody against PD-L1 fused to extracellular domain of human TGF-β receptor II		34.4
